# Reference: patent US20200038415A1, “AMINOSTEROL COMPOSITIONS AND METHODS OF USING THE SAME FOR TREATING ERECTILE DYSFUNCTION” (Enterin, Inc., priority 2018, published 2020)
# Key:
# [1] = in vivo; cited from earlier work
# mouse models of PD = conditions: oral; mice with constipation due to overexpression of human αS (West et al, in preparation); cited from earlier work
# [2] = prior studies, cited from earlier work
# [3] = cited from earlier work
# [4] = test system: IPANs (intrinsic primary afferent neuron); conditions: perfusion through lumen of isolated bowel segment, PD mouse model; cited from earlier work
# [5] = systemic administration; into the duodenum through the biliary tract (in mice); cited from earlier work
# [6] = Pharmacokinetics of orally administered squalamine (ENT-01) in Stage 1; type: in vivo, human; conditions: oral, active zwitterion
# Protocol: PK data were collected on the 10 patients enrolled in Stage 1 and 10 patients enrolled in Stage 2 to determine the extent of systemic absorption. In Stage 1, PK data were obtained at each visit, pre-medication, at 1, 2, 4, 8 and 24 hours (Table 10). In Stage 2, PK was measured on days 1 and 6 of the randomization period pre-medication, at 1, 2, 4 and 8 hours (Table 11).
# The mean Cmax, Tmax and T1/2 and AUC of the squalamine ion following squalamine (ENT-01) oral dosing for Stage 1 patients. The PK analyses are only approximate, as the lower limit of the validated concentration range was 10 ng/ml; most of the measured concentrations fell below that value. The mean Cmax, Tmax and T1/2 and AUC of the squalamine ion following squalamine (ENT-01) oral dosing for Stage 2 patients. The PK analyses are only approximate, as the lower limit of the validated concentration range was 0.5 ng/ml.
Compound,known pharmacological effects [1],gastro-intestinal motility (mouse models of PD),gastrointestinal motility after intravenous administration ([2]; intravenous),"systemic blood levels, intravenous versus orally administered [2]","well tolerated intravenous dose ([3]; dilactate salt, single and repeat intravenous administration, Phase 1 and Phase 2 trials)","drug related GI toxicology ([3]; published clinical trials, systemic administration)",effect on IPANs of the ENS [4],clearance and excretion [5],systemic absorption [6]
"CC(C)[C@@H](CC[C@@H](C)[C@H]1CC[C@H]2[C@@H]3[C@H](O)C[C@H]4C[C@@H](NCCCNCCCCNCCCN)CC[C@]4(C)[C@H]3CC[C@]12C)OS(=O)(=O)O [Aminosterol 1436, trodusquemine]",reduction in food intake and weight loss,–,–,–,–,–,–,–,–
CC(C)[C@@H](CC[C@@H](C)[C@H]1CC[C@H]2[C@@H]3[C@H](O)C[C@H]4C[C@@H](NCCCNCCCCN)CC[C@]4(C)[C@H]3CC[C@]12C)OS(=O)(=O)O [squalamine],"nausea, vomiting and/or reduced blood pressure",stimulates gastro-intestinal motility,not associated with increased gastrointestinal motility,one thousand-fold greater,at least 300 mg/m^2,has not been reported,excitation of IPANs,cleared by the liver and excreted as the intact molecule,not significantly absorbed into the systemic circulation
